Data as given in patent US20230149378A1, “Aminothiolester compounds or pharmaceutically acceptable salts thereof, for use for the treatment of cancer” (ADVANCED BIODESIGN, priority 2015, published 2023).
Blank lines part the entries; values can stand above or below the compound they belong to.

Key:
[1] = tested on: DU145 (prostatic cancer line); test: Alamar blue growth inhibition, cell line DU145; assay type: cell-based; conditions: Homo sapiens, DU-145
Method: (§1) Cells were seeded into 96-well cell culture plates at concentrations required to ensure approximately 80% confluence in control (untreated cells) at the end of experiment (0.5×10^4-5×10^4 cell/well). The sensitivity towards S-methyl 4-(dimethylamino)-4-methylpent-2-ynethioate was determined using different concentrations of the drug (from 0.01 to 100 μM). After 48 hours, the growth-inhibitory effect of the drug was analyzed using Alamar blue, according to manufactures instructions. The Alamar Blue assay was used based on earlier observations: similar results were found with Alamar blue, tetrazolium reduction (XTT assay). To ensure good data quality and to minimize impact of pipetting errors, each particular drug concentration was assessed based on mean fluorescence intensity from 8 separate wells. The drug response was quantified by the half maximal inhibitory concentration (IC50) for each particular cell line, and determined by non-linear regression analysis of log-dose/response curves. Cut-off value for resistance to S-methyl 4-(dimethylamino)-4-methylpent-2-ynethioate was determined statistically (>2 S.D. above the IC50 geometric mean). The in-vitro threshold value for hypersensitivity to the drug has been defined as <IC50 geometric mean.
(§2) In addition, other compounds according to the invention were tested by following the above mentioned material and method on the cell line DU145 (prostatic cancer line) and the cell line HL60 (leukemia) mentioned in Table 2.

HL-60 (leukemia) = test: Alamar blue growth inhibition, cell line HL60; assay type: cell-based; conditions: Homo sapiens
Method: as §1, §2

[2] = Aruoma et al 1989; cited from earlier work
HL-60 cells [3] = test: Measurement of GSH level (GSH-Glo); assay type: cell-based, human; conditions: HL-60 cells treated with 2.5 mM NAC; FIG. 6(B)
Method: (§3) Cells were seeded in 96-well black walled plate (5×10^4 cells/mL) and incubated overnight for attachment. The cells were treated either with vehicle, DMSO, BCNU 100 μM, S-methyl 4-(dimethylamino)-4-methylpent-2-ynethioate 20 μM, for 24 hours. The total glutathione was measured according to the instructions of the kit (GSH-Glo™, Promega) and results were obtained for 25 000 cells.

[4] = Aruoma et al 1989; cited from earlier work; remark: listed apart in the source
[5] = tested on: cancer cell lines which overproduce H2O2; test: Viability assay (resazurin, XTT or MTT) on various cancer cell lines; assay type: cell-based, human; conditions: FIG. 1
Method: A panel of 52 human tumor cells representing 10 tissue types has been selected to cover a broad set of different oncogenes and according to their response to different standard chemotherapeutics. […]
as §1, with “The Alamar Blue assay was used based on earlier observations: similar results were found with Alamar blue, tetrazolium reduction (XTT assay).” left out, “The in-vitro threshold value for hypersensitivity to the drug has been defined as <IC50 geometric mean.” left out

[6] = tested on: sensitive cells (HL-60, NT2/D1); test: HNE-adducts ELISA, sensitive cells; assay type: cell-based, human; conditions: 5 or 10 μmol·L^−1 during 24 hours, FIG. 10
Method: (§4) The formation of HNE-adducts and MDA-adducts was quantified with the Oxiselect HNE Adduct Elisa kit (Cell Biolabs, San Diego, Calif.) and the OxiSelect MDA Adduct ELISA Kit (Cell Biolabs), respectively. Briefly, after a treatment with S-methyl 4-(dimethylamino)-4-methylpent-2-ynethioate during 24 hours, cells were lysed by sonication in reducing SDS Sample Buffer. Homogenates were diluted to 10 μg protein/mL and adsorbed in 96-well protein binding plates by incubation at 37° C. for at least 2 hours. Wells were washed twice with PBS and incubated for an additional 2 hours at room temperature on an orbital shaker. Following three washes in PBS, 100 μL of anti-HNE antibody or anti-MDA antibody were added to the wells and incubated for 1 hour at room temperature. Subsequently, goat anti-rabbit secondary antibody-HRP conjugate (diluted 1/1000 with the assay diluent) was added and incubation continued for 1 hour. Wells were washed five times in PBS and HRP-substrate was added. Reaction was stopped with an acidic solution, and absorbance read on a microplate reader at 450 nm. The level of HNE-adducts and of MDA-adducts was determined by comparison with a standard curve prepared from HNE-BSA and MDA-BSA standards supplied by the manufacturer. […]

HL60 cancers cells = test: Measurement of H2O2 production (Total ROS/superoxide detection kit); assay type: cell-based, human; conditions: FIG. 6(A)
Method: Intracellular H2O2 production in live cells was measured using Total ROS/superoxide detection kit (Enzo life science), following the manufacturer's instructions. The assay uses specific H2O2/RNS probes that upon reaction with H2O2 and RNS species were oxidized rapidly to highly fluorescent compounds. Fluorescence intensity is proportional to the total H2O2/RNS levels within the sample. […] The day before the analysis, cells were seeded in 96-well black/clear bottom plates at a density of 2×10^4 in culture media according to cell suppliers instructions, supplemented with FBS (10% v/v), 10 units of penicillin/mi and […] of streptomycin. Cells were kept at 37° C. in a humid atmosphere of 95% air: 5% CO2 overnight. On the day of the analysis, cells media was replaced by 100 μL of phenol free-media supplemented as above, without any treatment, with S-methyl 4-(dimethylamino)-4-methylpent-2-ynethioate for 6 hours, vehicle HEPES for 6 hours, or with NAC for 20 min. […] Several wells were left without cells for the background fluorescence control measurements. Plates were read using fluorescence microplate reader (ex=560 nm, Em=600). Data were expressed as the change in arbitrary fluorescence units produced from equal amounts of cells and normalized to total protein input.

resistant cells (MSC) [7] = test: HNE-adducts ELISA, resistant cells; assay type: cell-based, human; conditions: 5 or 10 μmol·L^−1 during 24 hours, FIG. 10
Method: as §4

[8] = tested on: hMCSs-BM (Human mesenchymal stem cells from bone marrow); test: Alamar blue growth inhibition, normal human primary cells; assay type: cell-based; conditions: 48 hours
Method: as §1
(§5) In addition, to control the selectivity of the S-methyl 4-(dimethylamino)-4-methylpent-2-ynethioate toward cancer cells, the compound according to the invention was also tested on normal cells by using the same method as the one described above.

[9] = tested on: BEAS-2B (Human bronchial epithelial cells); test: as above; assay type: cell-based; conditions: 48 hours
Method: as §1, §5

[10] = tested on: HPF (Human Pulmonary fibroblasts); test: as above; assay type: cell-based; conditions: Pulmonary fibroblast, 48 hours
Method: as §1, §5

[11] = tested on: huvec (Human umbilical vein endothelial cells); test: as above; assay type: cell-based; conditions: 48 hours
Method: as §1, §5

[12] = tested on: NHEM (Normal Human epidermal melanocytes); test: as above; assay type: cell-based; conditions: Melanocyte, 48 hours
Method: as §1, §5

normal cells = test: Selectivity control on normal cells; assay type: cell-based, human; conditions: same method as cancer cells
Method: as §1, with “mean. […]” for “mean.”

[13] = tested on: sensitive cells (HL-60, NT2/D1); test: MDA-adducts ELISA, sensitive cells; assay type: cell-based, human; conditions: 5 or 10 μmol·L^−1 during 24 hours, FIG. 10
Method: as §4

resistant cells (MSC) [14] = test: MDA-adducts ELISA, resistant cells; assay type: cell-based, human; conditions: 5 or 10 μmol·L^−1 during 24 hours, FIG. 10
Method: as §4

HL-60 cells [15] = test: Viability of HL-60 cells with NAC or GSH-MEE (induction of resistance); assay type: cell-based
Method: To revert S-methyl 4-(dimethylamino)-4-methylpent-2-ynethioate-induced cell death, drug sensitive cells HL-60 were exposed to S-methyl 4-(dimethylamino)-4-methylpent-2-ynethioate (10 μM) in the presence of the reduced glutathione analog Glutathione Monoethyl Ester (GSH-MEE) at concentrations 10 mM or S-methyl 4-(dimethylamino)-4-methylpent ynethioate in combination. HL-60 were seeded, into 96-wells plate, at a concentration of 5×10^4 cells/well in 100 μL of complemented medium supplemented with Glutathione Monoethyl Ester (GSH-MEE) 10 mM. After 90 minutes incubation, cells were washed with PBS and cells were incubated using different concentrations of the drug (from 0.01 to 100 μM). After 24 h and 48 h cell viability was measure using the Rezasurin assay as described above.

Colo357 cells [16] = test: Viability of Colo357 cells treated with BCNU; assay type: cell-based; conditions: Colo357 cells treated with 100 μM carmustine (BCNU); FIG. 8(B)
Colo357 cells [17] = test: Measurement of GSH level (GSH-Glo); assay type: cell-based; conditions: 100 μM, FIG. 8(A)
Method: as §3

IC50 [1]: 12.5 µM
IC50 (HL-60 (leukemia)): 24.8 µM
Structure (SMILES): CSC(=O)C#CC(C)(C)N(C)c1ccccc1 [S-methyl 4-methyl-4-[methyl(phenyl)amino]pent-2-ynethioate]

IC50 [1]: 1.4 µM
IC50 (HL-60 (leukemia)): 10.4 µM
Structure (SMILES): CSC(=O)C#CC(C)(C)N(C)Cc1ccccc1 [S-methyl 4-[benzyl(methyl)amino]-4-methylpent-2-ynethioate]

IC50 [1]: 9.3 µM
IC50 (HL-60 (leukemia)): 30 µM
Structure (SMILES): CSC(=O)C#CC(C)(C)N1CCOCC1 [S-methyl 4-methyl-4-(morpholin-4-yl)pent-2-ynethioate]

Structure (SMILES): CC(=O)N[C@@H](CS)C(=O)O [NAC, N-acetyl-L-cysteine]
rate constant, scavenging of hydroxy radicals [2]: 1.36×10^10 M^−1,s^−1
amount of GSH level (HL-60 cells [3]): significantly increased
rate constant, reaction with hydrogen peroxide [4]: 0.38 M^−1, s^−1

IC50 [1]: 22 µM
IC50 (HL-60 (leukemia)): 7.21 µM
Structure (SMILES): CSC(=O)C#CC(C)(C)N1CCCCC1 [S-methyl 4-methyl-4-(piperidin-1-yl)pent-2-ynethioate]

Structure (SMILES): CSC(=O)C#CC(C)(C)N(C)C [S-methyl 4-(dimethylamino)-4-methylpent-2-ynethioate]
efficacy in cancer cell lines (viability assay) [5]: effective
HNE-adducts level [6]: > 1 μg per μg of total protein
H2O2 activity level in Relative Fluorescence Unit (RFU) (HL60 cancers cells; HL60, 5 μM for 24 hours): increased
H2O2 activity level in Relative Fluorescence Unit (RFU) (HL60 cancers cells; HL60, treatment in addition with 2.5 mM N-acetyl-Cysteine (NAC)): no H2O2 increase
IC50 [1]: 7.2 µM
HNE-adducts level (resistant cells (MSC) [7]): < 1 μg per μg of total protein
IC50 [8]: > 50 µM
IC50 [9]: > 50 µM
IC50 [10]: > 100 µM
IC50 [11]: > 50 µM
IC50 [12]: > 100 µM
effect on normal cells (normal cells): no effect
IC50 (HL-60 (leukemia)): 7.6 µM
MDA-adducts level [13]: above 100 ng per μg of total protein
MDA-adducts level (resistant cells (MSC) [14]): < 100 ng per μg of total protein
viability of HL-60 cells (HL-60 cells [15]; 5, 10 μmol·L-1 and 2.5 mM NAC, FIG. 6(C)): inhibition of efficacy
cytotoxic effect on HL-60 cells (HL-60 cells [15]; after pre-treatment of 10 mM GSH-MEE, FIG. 7): no more effective
decrease of viability (Colo357 cells [16]): 50%

Structure (SMILES): O=NN(CCCl)C(=O)NCCCl [carmustine]
decrease of the GSH level (Colo357 cells [17]): 50%
